“Also recorded” adds a separate entry of the source. Where two headings read alike, the source gives them in different places.
Experiments:
[1] = Stability in human liver microsomes; type: in vitro ADME; settings: for microsomal CLint at 1 μM / half-life at 1 μM: both sexes, human, liver microsomes, pH 7.4, human liver microsomes
Method: Some compounds were tested for stability in human liver microsomes as shown below in Table 2.
Mixed-gender human liver microsomes (Lot #1010420) were purchased from XenoTech. The reaction mixture, minus NADPH, was prepared as described below. The test article was added into the reaction mixture at a final concentration of 1 μM. The control compound, testosterone, was run simultaneously with the test article in a separate reaction. An aliquot of the reaction mixture (without cofactor) was equilibrated in a shaking water bath at 37° C. for 3 minutes. The reaction was initiated by the addition of the cofactor, and the mixture was incubated in a shaking water bath at 37° C. Aliquots (100 μL) were withdrawn at 0, 10, 20, 30, and 60 minutes. Test article and testosterone samples were immediately combined with 400 μL of ice-cold 50/50 acetonitrile (ACN)/H2O containing 0.1% formic acid and internal standard to terminate the reaction. The samples were then mixed and centrifuged to precipitate proteins. All samples were assayed by LC-MS/MS using electrospray ionization. Analytical conditions are outlined in Appendix 1. The peak area response ratio (PARR) to internal standard was compared to the PARR at time 0 to determine the percent remaining at each time point. Half-lives and clearance were calculated using GraphPad software, fitting to a single-phase exponential decay equation.
Liver Microsomes 0.5 mg/mL NADPH (cofactor) 1 mM
Potassium Phosphate, pH 7.4 100 mM
Intrinsic clearance (CLint) was calculated based on CLint=k/P, where k is the elimination constant and P is the protein concentration in the incubation.

[2] = tested on: mice; experiment: 2 day radial arm water maze (RAWM), spatial short-term memory; type: in vivo
Method: Synaptic plasticity is thought to underlie memory formation. RA010115 was also tested in assays aimed at determining whether the compound can be beneficial to two types of memory, short-term spatial memory that can tested through the 2 day radial arm water maze, and contextual fear memory, a type of associative memory that depends upon hippocampal function and is impaired in AD patients. FIG. 27 is a graph showing that RA010115 rescues oTau- and oAβ-induced defects in the 2-day radial arm water maze test of spatial short-term memory. The performance in the RAWM was impaired in mice administered with oAβ (200 nM) oTau (500 nM). […] The performance was not impaired when mice were treated with only RA010115 or vehicle. (ANOVA for repeated measures among all groups at day 2: F(5, 65)=7.092, p<0.0001. One-way ANOVA for block 10: F(5, 65)=7.385, p<0.0001; Bonferroni's p<0.0001 for both oAβ vs. vehicle and oTau vs. vehicle; oAβ vs RA010115 plus oAβ p<0.001 and for oTau vs RA010115 plus oTau p<0.05.

COc1cccc(OC)c1C(=O)Nc1ccc(Cl)c(C(F)(F)F)c1 [RA010115]
microsomal CLint at 1 μM ([1]; calculated value printed in parentheses behind the bound, read-out: CLint, value in parentheses): 150 µL/min/mg | half-life at 1 μM ([1]; fitted value printed in parentheses behind the bound, read-out: Half-life, value in parentheses): 9.25 min | microsomal CLint at 1 μM ([1]; read-out: CLint): > 139 µL/min/mg | half-life at 1 μM ([1]; read-out: Half-life): < 10 min | % Remaining of Initial (n = 1) 0 min ([1]; human liver microsomes, test article 1 μM, 0 min): 100% | % Remaining of Initial (n = 1) 10 min ([1]; human liver microsomes, test article 1 μM, 10 min): 47.7% | % Remaining of Initial (n = 1) 20 min ([1]; human liver microsomes, test article 1 μM, 20 min): 21.1% | % Remaining of Initial (n = 1) 30 min ([1]; human liver microsomes, test article 1 μM, 30 min): 11.4% | % Remaining of Initial (n = 1) 60 min ([1]; human liver microsomes, test article 1 μM, 60 min): 2.59% | oTau- and oAβ-induced defects in RAWM performance ([2]; mice administered oAβ (200 nM) or oTau (500 nM), compound 5 mg/kg, 5 mg/kg): rescued the deficit; also recorded: rescues | RAWM performance, compound alone ([2]; mice treated with only compound): not impaired
